What was measured:
Assay type in all cases: in vivo
Digitaria ciliaris [1] = test: Foliar treatment herbicidal activity test; conditions: 2 weeks; for pest or weed control at 16 g/ha / pest or weed control at 8 g/ha: Digitaria ciliaris, 336 h; for pest or weed control at 16 g/ha: Table 6 (III), 16 g a.i./ha
Method: (§1) A compound fertilizer for horticulture (N:P:K=11:10:11) was mixed with sterilized sandy soil (pH 6.1, organic substance 1.0%, clay 21%, silt 17%, sand 52%), 1 g per each pot (350 cm^2). The soil was filled in a square plastic pot, and corn, Poaceae plants including Panicum dichotomiflorum and Digitaria ciliaris, broadleaf plants including Solanum nigrum, Aeschynomene indica, Abutilon theophrasti and cocklebur, or convolvulus rhizome were sown and covered with soil. Soil treatment was carried out by spraying a test formulation 1 day after the sowing, and foliar treatment, 8 to 12 days after the sowing. The test formulation was prepared by dissolving of a test compound in a mixture of 5 wt % of acetone and 1 wt % of an emulsifier, and diluting with water to prepare a wettable powder. 2000 L of the test formulation was sprayed per hectare. The amount of the active compound was adjusted to a desired quantity.
(§2) Following the treatment, the plants were grown for 2 weeks under a greenhouse condition (25-35° C. during the day and 20-25° C. at night, 14 hour light cycle). Herbicidal activity was evaluated in comparison to a non-treated control group according to the following standard: for weeds, 0 (no herbicidal effect) to 100 (complete destruction); and for crops 0 (harmless) to […] (complete destruction).

Abutilon theophrasti [2] = test: Foliar treatment herbicidal activity test; conditions: 2 weeks, scale 0 to 100 (complete destruction)
Method: as §1, §2

Aeschynomene indica [3] = test: Foliar treatment herbicidal activity test; conditions: 2 weeks, scale 0 to 100 (complete destruction)
Method: as §1, §2

Echinochloa crus-galli = test: Foliar treatment herbicidal activity test; conditions: 2 weeks; for pest or weed control at 16 g/ha / pest or weed control at 8 g/ha: Echinochloa crus-galli, 336 h; for pest or weed control at 16 g/ha: Table 6 (III), 16 g a.i./ha
Method: as §1, §2

Solanum nigrum [4] = test: Foliar treatment herbicidal activity test; conditions: 2 weeks, scale 0 to 100 (complete destruction)
Method: as §1, §2

Panicum dichotomiflorum = test: Foliar treatment herbicidal activity test; conditions: 2 weeks, scale 0 to 100 (complete destruction)
Method: as §1, §2

Cocklebur = test: Foliar treatment herbicidal activity test; conditions: for Herbicidal activity, Cocklebur: foliar treatment, 8 g a.i./ha, 2 weeks
Method: as §1, §2

monocot weeds = test: Foliar treatment herbicidal activity test (summary in text)
Method: as §1, §2

Wheat = test: Soil treatment test, crop harm; conditions: Table 7, 32 g a.i./ha, 2 weeks, crops scale 0 (harmless) to 10 (complete destruction)
Sorghum bicolor [5] = test: Foliar treatment herbicidal activity test; conditions: Table 4 (I), 8 g a.i./ha, 2 weeks, scale 0 to 100 (complete destruction)
Method: as §1, §2

Cyperus serotinus = test: Foliar treatment herbicidal activity test; conditions: Table 4 (I), 8 g a.i./ha, 2 weeks, scale 0 to 100 (complete destruction)
Corn = test: Soil treatment test, crop harm; conditions: Table 7, 32 g a.i./ha, 2 weeks, crops scale 0 (harmless) to 10 (complete destruction)
Method: as §1, §2

Digitaria ciliaris [6] = test: Soil treatment herbicidal activity test; conditions: Table 7, 32 g a.i./ha, 2 weeks, scale 0 to 100 (complete destruction)
Method: as §1, §2

Abutilon theophrasti [7] = test: Soil treatment herbicidal activity test; conditions: Table 7, 32 g a.i./ha, 2 weeks, scale 0 to 100 (complete destruction)
Method: as §1, §2

Aeschynomene indica [8] = test: Soil treatment herbicidal activity test; conditions: Table 7, 32 g a.i./ha, 2 weeks, scale 0 to 100 (complete destruction)
Method: as §1, §2

Solanum nigrum [9] = test: Soil treatment herbicidal activity test; conditions: Table 7, 32 g a.i./ha, 2 weeks, scale 0 to 100 (complete destruction)
Method: as §1, §2

Sorghum bicolor [10] = test: Soil treatment herbicidal activity test; conditions: Table 7, 32 g a.i./ha, 2 weeks, scale 0 to 100 (complete destruction)
Method: as §1, §2

[11] = scale 0 to 100 (complete destruction)
[12] = Table 3, 8 g a.i./ha, scale 0 (no herbicidal effect) to 100 (complete destruction)
[13] = Table 3, scale 0 (no herbicidal effect) to 100 (complete destruction)
[14] = Table 5 (II), 8 g a.i./ha, scale 0 to 100 (complete destruction)
[15] = Table 4 (I), 8 g a.i./ha, scale 0 to 100 (complete destruction)
[16] = Table 4 (I), scale 0 to 100 (complete destruction)

Compound	pest or weed control at 16 g/ha (Digitaria ciliaris [1]; [11])	Herbicidal activity, Abutilon theophrasti (Abutilon theophrasti [2]; Table 6 (III), 16 g a.i./ha)	Herbicidal activity, Aeschynomene indica (Aeschynomene indica [3]; Table 6 (III), 16 g a.i./ha)	pest or weed control at 16 g/ha (Echinochloa crus-galli; [11])	Herbicidal activity, Solanum nigrum (Solanum nigrum [4]; Table 6 (III), 16 g a.i./ha)	Herbicidal activity, Panicum dichotomiflorum (Panicum dichotomiflorum; Table 6 (III), 16 g a.i./ha)	pest or weed control at 8 g/ha (Digitaria ciliaris [1]; [12])	Herbicidal activity against cocklebur (in words) (Cocklebur)	Herbicidal activity, Cocklebur (Cocklebur; [13])	pest or weed control at 8 g/ha (Echinochloa crus-galli; [12])	Herbicidal activity against monocot weeds (in words) (monocot weeds)	other results
COC(=O)COC(=O)CCNC(=O)C(C)Oc1cc(-n2c(=O)cc(C(F)(F)F)n(C)c2=O)c(F)cc1Cl (centres unmarked) [Compound No. 22, 3-[{2-[2-chloro-5-(3,6-dihydro-3-methyl-2,6-dioxo-4-trifluoromethyl-1(2H)-pyrimidinyl)-4-fluorophenoxy]-1-oxopropyl}amino]propionyloxy acetic acid methyl ester]	85%	100	100	100%	100	100						
COC(=O)CNC(=O)C(C)Oc1cc(-n2c(=O)cc(C(F)(F)F)n(C)c2=O)c(F)cc1Cl (centres unmarked) [compound 1]							30%	imperfect herbicidal activity	98	55%	very low herbicidal activity	
CCOC(=O)CCNC(=O)C(C)Oc1cc(-n2c(=O)cc(C(F)(F)F)n(C)c2=O)c(F)cc1Cl (centres unmarked) [Compound No. 24, 3-[{2-[2-chloro-5-(3,6-dihydro-3-methyl-2,6-dioxo-4-trifluoromethyl-1(2H)-pyrimidinyl)-4-fluorophenoxy]-1-oxopropyl}amino]propionic acid ethyl ester]												pest or weed control at 8 g/ha (Digitaria ciliaris [1]; [14]): 99%; Herbicidal activity, Abutilon theophrasti (Abutilon theophrasti [2]; Table 5 (II), 8 g a.i./ha): 100; Herbicidal activity, Aeschynomene indica (Aeschynomene indica [3]; Table 5 (II), 8 g a.i./ha): 100; pest or weed control at 8 g/ha (Echinochloa crus-galli; [14]): 98%; Herbicidal activity, Solanum nigrum (Solanum nigrum [4]; Table 5 (II), 8 g a.i./ha): 100; Herbicidal activity, Panicum dichotomiflorum (Panicum dichotomiflorum; Table 5 (II), 8 g a.i./ha): 99
COC(=O)CCNC(=O)C(C)Sc1cc(-n2c(=O)cc(C(F)(F)F)n(C)c2=O)c(F)cc1Cl (centres unmarked) [Compound No. 36, 3-[{2-[2-chloro-5-(3,6-dihydro-3-methyl-2,6-dioxo-4-trifluoromethyl-1(2H)-pyrimidinyl)-4-fluorophenylthio]-1-oxopropyl}amino]propionic acid methyl ester]												Crop harm, Wheat (Wheat): 0; pest or weed control at 8 g/ha (Digitaria ciliaris [1]; [15]): 100%; Herbicidal activity, Abutilon theophrasti (Abutilon theophrasti [2]; Table 4 (I), 8 g a.i./ha): 100; Herbicidal activity, Cocklebur (Cocklebur; [16]): 100; Herbicidal activity, Aeschynomene indica (Aeschynomene indica [3]; Table 4 (I), 8 g a.i./ha): 100; Herbicidal activity, Sorghum bicolor (Sorghum bicolor [5]): 100; Herbicidal activity, Cyperus serotinus (Cyperus serotinus): 100; Crop harm, Corn (Corn): 0; Herbicidal activity, Digitaria ciliaris (Digitaria ciliaris [6]): 100; Herbicidal activity, Abutilon theophrasti (Abutilon theophrasti [7]): 100; Herbicidal activity, Aeschynomene indica (Aeschynomene indica [8]): 100; Herbicidal activity, Solanum nigrum (Solanum nigrum [9]): 100; Herbicidal activity, Sorghum bicolor (Sorghum bicolor [10]): 100
COC(=O)C(C)NC(=O)C(C)Oc1cc(-n2c(=O)cc(C(F)(F)F)n(C)c2=O)c(F)cc1Cl (centres unmarked) [compound 2]							25%	imperfect herbicidal activity	70	65%	very low herbicidal activity	
COC(=O)CONC(=O)C(C)Oc1cc(-n2c(=O)cc(C(F)(F)F)n(C)c2=O)c(F)cc1Cl (centres unmarked) [compound 3]							10%	imperfect herbicidal activity	95	30%	very low herbicidal activity	
C#CCOC(=O)CCNC(=O)C(C)Oc1cc(-n2c(=O)cc(C(F)(F)F)n(C)c2=O)c(F)cc1Cl (centres unmarked) [Compound No. 26, 3-[{2-[2-chloro-5-(3,6-dihydro-3-methyl-2,6-dioxo-4-trifluoromethyl-1(2H)-pyrimidinyl)-4-fluorophenoxy]-1-oxopropyl}amino]propionic acid propargyl ester]	95%	100	100	90%	100	90						
C=CCOC(=O)CCNC(=O)C(C)Oc1cc(-n2c(=O)cc(C(F)(F)F)n(C)c2=O)c(F)cc1Cl (centres unmarked) [Compound No. 25, 3-[{2-[2-chloro-5-(3,6-dihydro-3-methyl-2,6-dioxo-4-trifluoromethyl-1(2H)-pyrimidinyl)-4-fluorophenoxy]-1-oxopropyl}amino]propionic acid allyl ester]	100%	100	100	90%	100	96						
COC(=O)CCNC(=O)C(C)Oc1cc(-n2c(=O)cc(C(F)(F)F)n(C)c2=O)c(F)cc1Cl (centres unmarked) [Compound No. 1, 3-[{2-[2-chloro-5-(3,6-dihydro-3-methyl-2,6-dioxo-4-trifluoromethyl-1(2H)-pyrimidinyl)-4-fluorophenoxy]-1-oxopropyl}amino]propionic acid methyl ester]							100%		100	100%		Crop harm, Wheat (Wheat): 3; Herbicidal activity, Digitaria ciliaris (Digitaria ciliaris [1]; [15]): 100; Herbicidal activity, Digitaria ciliaris (Digitaria ciliaris [1]; [14]): 100; Herbicidal activity, Abutilon theophrasti (Abutilon theophrasti [2]; Table 4 (I), 8 g a.i./ha): 100; Herbicidal activity, Abutilon theophrasti (Abutilon theophrasti [2]; Table 5 (II), 8 g a.i./ha): 100; Herbicidal activity, Cocklebur (Cocklebur; [16]): 100; Herbicidal activity, Aeschynomene indica (Aeschynomene indica [3]; Table 4 (I), 8 g a.i./ha): 100; Herbicidal activity, Aeschynomene indica (Aeschynomene indica [3]; Table 5 (II), 8 g a.i./ha): 100; Herbicidal activity, Echinochloa crus-galli (Echinochloa crus-galli; [14]): 100; Herbicidal activity, Solanum nigrum (Solanum nigrum [4]; Table 5 (II), 8 g a.i./ha): 100; Herbicidal activity, Panicum dichotomiflorum (Panicum dichotomiflorum; Table 5 (II), 8 g a.i./ha): 100; Herbicidal activity, Sorghum bicolor (Sorghum bicolor [5]): 97; Herbicidal activity, Cyperus serotinus (Cyperus serotinus): 100; Crop harm, Corn (Corn): 2; Herbicidal activity, Digitaria ciliaris (Digitaria ciliaris [6]): 100; Herbicidal activity, Abutilon theophrasti (Abutilon theophrasti [7]): 100; Herbicidal activity, Aeschynomene indica (Aeschynomene indica [8]): 100; Herbicidal activity, Solanum nigrum (Solanum nigrum [9]): 100; Herbicidal activity, Sorghum bicolor (Sorghum bicolor [10]): 100
CCCCOC(=O)CCNC(=O)C(C)Oc1cc(-n2c(=O)cc(C(F)(F)F)n(C)c2=O)c(F)cc1Cl (centres unmarked) [Compound No. 23, 3-[{2-[2-chloro-5-(3,6-dihydro-3-methyl-2,6-dioxo-4-trifluoromethyl-1(2H)-pyrimidinyl)-4-fluorophenoxy]-1-oxopropyl}amino]propionic acid n-butyl ester]	100%	100	100	100%	100	100						
